Experimental findings from US7750003B2, “Compounds-943” (AstraZeneca AB, priority 2006, dated 2010) are described below.

The IC50 is the concentration needed to halve the response being measured.

recombinant mTOR (FLAG-tagged, residues 1362-2549), sequence (P42345 1362-2549): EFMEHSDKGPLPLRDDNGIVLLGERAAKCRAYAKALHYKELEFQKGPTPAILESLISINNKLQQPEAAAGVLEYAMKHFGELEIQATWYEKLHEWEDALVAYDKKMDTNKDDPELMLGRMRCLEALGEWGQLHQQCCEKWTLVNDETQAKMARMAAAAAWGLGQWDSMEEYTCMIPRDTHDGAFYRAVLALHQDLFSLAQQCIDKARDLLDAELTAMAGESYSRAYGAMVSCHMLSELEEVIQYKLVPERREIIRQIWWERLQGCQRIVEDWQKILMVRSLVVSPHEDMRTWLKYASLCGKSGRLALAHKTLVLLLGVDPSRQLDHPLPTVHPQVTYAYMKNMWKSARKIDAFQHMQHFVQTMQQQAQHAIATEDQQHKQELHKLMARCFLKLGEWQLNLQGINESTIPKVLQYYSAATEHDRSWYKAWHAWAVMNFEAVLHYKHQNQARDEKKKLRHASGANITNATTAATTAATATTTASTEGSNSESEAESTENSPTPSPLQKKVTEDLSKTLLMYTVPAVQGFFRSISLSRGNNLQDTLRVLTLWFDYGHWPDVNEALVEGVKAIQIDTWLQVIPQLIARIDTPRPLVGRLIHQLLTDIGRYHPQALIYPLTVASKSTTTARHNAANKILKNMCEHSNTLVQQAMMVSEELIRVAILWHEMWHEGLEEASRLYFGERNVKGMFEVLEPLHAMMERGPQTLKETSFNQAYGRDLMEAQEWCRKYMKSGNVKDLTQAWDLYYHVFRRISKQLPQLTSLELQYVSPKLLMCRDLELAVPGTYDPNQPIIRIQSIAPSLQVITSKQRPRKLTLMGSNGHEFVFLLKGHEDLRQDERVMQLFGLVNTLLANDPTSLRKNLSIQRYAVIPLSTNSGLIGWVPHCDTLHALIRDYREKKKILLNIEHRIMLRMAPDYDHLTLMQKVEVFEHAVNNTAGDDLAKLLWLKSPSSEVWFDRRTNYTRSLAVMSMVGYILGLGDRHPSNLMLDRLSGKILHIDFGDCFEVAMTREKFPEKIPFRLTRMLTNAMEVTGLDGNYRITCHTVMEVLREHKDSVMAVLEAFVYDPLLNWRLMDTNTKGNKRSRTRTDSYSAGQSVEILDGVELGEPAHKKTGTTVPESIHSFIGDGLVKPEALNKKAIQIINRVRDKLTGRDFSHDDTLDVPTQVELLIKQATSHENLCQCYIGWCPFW

The target in the assay is recombinant mTOR (FLAG-tagged, residues 1362-2549) (Homo sapiens, UniProt P42345). Put plainly: In vitro mTOR kinase assay (Test (a), AlphaScreen). It is filed as biochemical. To be noted: ATP 20 μM, read-out: Test (a): IC50 versus mTOR kinase. An outline of the steps:
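AlphaScreen read-out: a phospho-T389 p70 S6K antibody on acceptor beads captures the phosphorylated biotin-peptide on donor beads, with signal loss indicating inhibition.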
On the technique in general: In Alpha technology, singlet oxygen from a donor bead excites a nearby acceptor bead.
Regarding `C[C@H]1COCCN1c1cc(CS(C)(=O)=O)nc(-c2cnc(NC(=O)NCCN(C)C)s2)n1` [Example 46g, 3-(2-dimethylaminoethyl)-1-[5-[4-[(3S)-3-methylmorpholin-4-yl]-6-(methylsulfonylmethyl)pyrimidin-2-yl]-1,3-thiazol-2-yl]urea], the IC50 was determined as 730 nM.

Turning to `C[C@H]1COCCN1c1cc(CS(C)(=O)=O)nc(-c2cnc(NC(=O)Nc3cnn(C)c3)s2)n1` [Example 46h, 1-[5-[4-[(3S)-3-methylmorpholin-4-yl]-6-(methylsulfonylmethyl)pyrimidin-2-yl]-1,3-thiazol-2-yl]-3-(1-methylpyrazol-4-yl)urea], the IC50 was determined as 63 nM.

Take `C[C@H]1COCCN1c1cc(CS(C)(=O)=O)nc(-c2cnc(NC(=O)NC3CC3)s2)n1` [Example 46i, 3-cyclopropyl-1-[5-[4-[(3S)-3-methylmorpholin-4-yl]-6-(methylsulfonylmethyl)pyrimidin-2-yl]-1,3-thiazol-2-yl]urea]: the IC50 came out at 97 nM.

For `CNC(=O)Nc1ncc(-c2nc(N3CCOC[C@@H]3C)cc(C(C)(C)S(C)(=O)=O)n2)s1` [Example 47, 3-Methyl-1-[5-[4-[(3S)-3-methylmorpholin-4-yl]-6-(2-methylsulfonylpropan-2-yl)pyrimidin-2-yl]-1,3-thiazol-2-yl]urea], the IC50 is 260 nM.

Take `C[C@H]1COCCN1c1cc(C(C)(C)S(C)(=O)=O)nc(-c2cnc(NC(=O)NC3CC3)s2)n1` [Example 47a, 3-cyclopropyl-1-[5-[4-[(3S)-3-methylmorpholin-4-yl]-6-(2-methylsulfonylpropan-2-yl)pyrimidin-2-yl]-1,3-thiazol-2-yl]urea]: the IC50 amounted to 1200 nM.

Regarding `C[C@H]1COCCN1c1cc(C(C)(C)S(C)(=O)=O)nc(-c2cnc(NC(=O)Nc3cnn(C)c3)s2)n1` [Example 47b, 1-[5-[4-[(3S)-3-methylmorpholin-4-yl]-6-(2-methylsulfonylpropan-2-yl)pyrimidin-2-yl]-1,3-thiazol-2-yl]-3-(1-methylpyrazol-4-yl)urea], the IC50 was 410 nM.

Regarding `C[C@H]1COCCN1c1cc(C(C)(C)S(C)(=O)=O)nc(-c2cnc(NC(=O)NCc3cnn(C)c3)s2)n1` [Example 47c, 1-[5-[4-[(3S)-3-methylmorpholin-4-yl]-6-(2-methylsulfonylpropan-2-yl)pyrimidin-2-yl]-1,3-thiazol-2-yl]-3-[(1-methylpyrazol-4-yl)methyl]urea], the 50% inhibitory concentration (IC50) was 1400 nM.

Turning to `CCNC(=O)Nc1ncc(-c2nc(N3CCOC[C@@H]3C)cc(C(C)(C)S(C)(=O)=O)n2)s1` [Example 47d, 1-ethyl-3-[5-[4-[(3S)-3-methylmorpholin-4-yl]-6-(2-methylsulfonylpropan-2-yl)pyrimidin-2-yl]-1,3-thiazol-2-yl]urea], the IC50 was 970 nM.

Consider `C[C@H]1COCCN1c1cc(CNC2CC2)nc(-c2ccc(NC(=O)NC3CC3)cc2)n1` [Example 49, 3-Cyclopropyl-1-[4-[4-[(cyclopropylamino)methyl]-6-[(3S)-3-methylmorpholin-4-yl]pyrimidin-2-yl]phenyl]urea], for which the IC50 was 33 nM.

Regarding `C[C@H]1COCCN1c1cc(CN(C)CCO)nc(-c2ccc(NC(=O)NC3CC3)cc2)n1` [Example 49a, 3-cyclopropyl-1-[4-[4-[(2-hydroxyethyl-methyl-amino)methyl]-6-[(3S)-3-methylmorpholin-4-yl]pyrimidin-2-yl]phenyl]urea], the IC50 is 150 nM.

On to `C[C@H]1COCCN1c1cc(CN2CCN(C)CC2)nc(-c2ccc(NC(=O)NC3CC3)cc2)n1` [Example 49b, 3-cyclopropyl-1-[4-[4-[(3S)-3-methylmorpholin-4-yl]-6-[(4-methylpiperazin-1-yl)methyl]pyrimidin-2-yl]phenyl]urea], for which the half-inhibitory concentration (IC50) stood at 14 nM.

Consider `COCCNCc1cc(N2CCOC[C@@H]2C)nc(-c2ccc(NC(=O)NC3CC3)cc2)n1` [Example 49c, 3-cyclopropyl-1-[4-[4-[(2-methoxyethylamino)methyl]-6-[(3S)-3-methylmorpholin-4-yl]pyrimidin-2-yl]phenyl]urea], for which the IC50 was 40 nM.

For the compound `C[C@H]1COCCN1c1cc(CNCCCN(C)C)nc(-c2ccc(NC(=O)NC3CC3)cc2)n1` [Example 49e, 3-cyclopropyl-1-[4-[4-[(3-dimethylaminopropylamino)methyl]-6-[(3S)-3-methylmorpholin-4-yl]pyrimidin-2-yl]phenyl]urea], the IC50 came out at 32 nM.

In the case of `C[C@H]1COCCN1c1cc(CN2CCOCC2)nc(-c2ccc(NC(=O)NC3CC3)cc2)n1` [Example 49f, 3-cyclopropyl-1-[4-[4-[(3S)-3-methylmorpholin-4-yl]-6-(morpholin-4-ylmethyl)pyrimidin-2-yl]phenyl]urea], the IC50 stood at 200 nM.

Turning to `C[C@H]1COCCN1c1cc(CNCCN(C)C)nc(-c2ccc(NC(=O)NC3CC3)cc2)n1` [Example 49g, 3-cyclopropyl-1-[4-[4-[(2-dimethylaminoethylamino)methyl]-6-[(3S)-3-methylmorpholin-4-yl]pyrimidin-2-yl]phenyl]urea], the IC50 came out at 87 nM.

As for `C[C@H]1COCCN1c1cc(CN2CCCN(C)CC2)nc(-c2ccc(NC(=O)NC3CC3)cc2)n1` [Example 49h, 3-cyclopropyl-1-[4-[4-[(4-methyl-1,4-diazepan-1-yl)methyl]-6-[(3S)-3-methylmorpholin-4-yl]pyrimidin-2-yl]phenyl]urea], the IC50 is 180 nM.

`C[C@H]1COCCN1c1cc(CNC(C)(C)CO)nc(-c2ccc(NC(=O)NC3CC3)cc2)n1` [Example 49i, 3-cyclopropyl-1-[4-[4-[[(1-hydroxy-2-methyl-propan-2-yl)amino]methyl]-6-[(3S)-3-methylmorpholin-4-yl]pyrimidin-2-yl]phenyl]urea]: the IC50 is 16 nM.

As for `C[C@H]1COCCN1c1cc(CN2CC(O)C2)nc(-c2ccc(NC(=O)NC3CC3)cc2)n1` [Example 49k, 3-cyclopropyl-1-[4-[4-[(3-hydroxyazetidin-1-yl)methyl]-6-[(3S)-3-methylmorpholin-4-yl]pyrimidin-2-yl]phenyl]urea], the IC50 came out at 14 nM.

Take `C[C@H]1COCCN1Cc1cc(N2CCOC[C@@H]2C)nc(-c2ccc(NC(=O)NC3CC3)cc2)n1` [Example 49l, 3-cyclopropyl-1-[4-[4-[(3S)-3-methylmorpholin-4-yl]-6-[[(3S)-3-methylmorpholin-4-yl]methyl]pyrimidin-2-yl]phenyl]urea]: the IC50 is 1600 nM.

Regarding `C[C@H]1COCCN1c1cc(CN2CCS(=O)(=O)CC2)nc(-c2ccc(NC(=O)NC3CC3)cc2)n1` [Example 50, 3-Cyclopropyl-1-[4-[4-[(1,1-dioxo-1,4-thiazinan-4-yl)methyl]-6-[(3S)-3-methylmorpholin-4-yl]pyrimidin-2-yl]phenyl]urea], the IC50 is 1.6 nM.

In the case of `C[C@H]1COCCN1c1cc(CN2CCN(C)CC2)nc(-c2ccc(NC(=O)NCc3cnn(C)c3)cc2)n1` [Example 52, 1-[4-[4-[(3S)-3-Methylmorpholin-4-yl]-6-[(4-methylpiperazin-1-yl)methyl]pyrimidin-2-yl]phenyl]-3-[(1-methylpyrazol-4-yl)methyl]urea], the IC50 came out at 1400 nM.

Take `C[C@H]1COCCN1c1cc(CNC2CC2)nc(-c2ccc(NC(=O)NCc3cnn(C)c3)cc2)n1` [Example 52a, 1-[4-[4-[(cyclopropylamino)methyl]-6-[(3S)-3-methylmorpholin-4-yl]pyrimidin-2-yl]phenyl]-3-[(1-methylpyrazol-4-yl)methyl]urea]: the IC50 was 330 nM.
